# Calls of active or inactive are those of the source. The rule behind the calls is not given here.
# Legend:
# NHDF = assay: Antiproliferative activity against human NHDF cells assessed as inhibition of cell growth incubated for 72 hrs by celltiter-glo assay; assay type: functional, cell-based
# [1] = target: Maternal embryonic leucine zipper kinase (Homo sapiens, UniProt Q14680); assay: Inhibition of recombinant MELK (unknown origin)
# MV4-11 = assay: Antiproliferative activity against human MV4-11 cells assessed as inhibition of cell growth incubated for 72 hrs by celltiter-glo assay; assay type: functional, cell-based; conditions: MV4-11, 72 h
# HCT-116 = assay: Cell cycle arrest in human HCT-116 cells assessed as accumulation of cells at G1 phase at 0.2 to 1 micromol/L incubated for 48 hrs by FACS/PI staining based flow cytometric analysis; assay type: functional; conditions: dose 0.2-1 µmol/L
# IGROV-1 = assay: Antiproliferative activity against human IGROV-1 cells assessed as inhibition of cell growth incubated for 72 hrs by celltiter-glo assay; assay type: functional, cell-based; conditions: IGROV-1, 72 h
# [2] = target: RAC-alpha serine/threonine-protein kinase (Homo sapiens, UniProt P31749); assay: Inhibition of recombinant AKT1 (unknown origin)
# RAC-alpha serine/threonine-protein kinase, sequence (P31749 whole entry): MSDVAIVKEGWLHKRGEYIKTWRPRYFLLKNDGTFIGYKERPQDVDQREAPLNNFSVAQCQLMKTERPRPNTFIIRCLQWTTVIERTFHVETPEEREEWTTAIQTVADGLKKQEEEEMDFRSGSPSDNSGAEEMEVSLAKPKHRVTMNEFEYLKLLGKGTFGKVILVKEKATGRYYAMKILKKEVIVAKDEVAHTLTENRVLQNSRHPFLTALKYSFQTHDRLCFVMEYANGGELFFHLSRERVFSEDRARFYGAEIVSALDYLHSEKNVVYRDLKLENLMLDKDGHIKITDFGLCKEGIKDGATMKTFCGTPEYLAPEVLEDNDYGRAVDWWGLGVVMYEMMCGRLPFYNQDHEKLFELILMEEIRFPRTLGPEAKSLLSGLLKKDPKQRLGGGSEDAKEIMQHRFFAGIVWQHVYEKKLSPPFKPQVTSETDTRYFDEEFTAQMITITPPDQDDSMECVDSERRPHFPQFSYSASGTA
# Activated CDC42 kinase 1 = Activated CDC42 kinase 1 (Homo sapiens, UniProt Q07912); assay: Inhibition of recombinant ACK1 (unknown origin)
# [3] = target: Tyrosine-protein kinase JAK3 (Homo sapiens, UniProt P52333); assay: Inhibition of recombinant JAK3 (unknown origin)
# Tyrosine-protein kinase JAK3, sequence (P52333 whole entry): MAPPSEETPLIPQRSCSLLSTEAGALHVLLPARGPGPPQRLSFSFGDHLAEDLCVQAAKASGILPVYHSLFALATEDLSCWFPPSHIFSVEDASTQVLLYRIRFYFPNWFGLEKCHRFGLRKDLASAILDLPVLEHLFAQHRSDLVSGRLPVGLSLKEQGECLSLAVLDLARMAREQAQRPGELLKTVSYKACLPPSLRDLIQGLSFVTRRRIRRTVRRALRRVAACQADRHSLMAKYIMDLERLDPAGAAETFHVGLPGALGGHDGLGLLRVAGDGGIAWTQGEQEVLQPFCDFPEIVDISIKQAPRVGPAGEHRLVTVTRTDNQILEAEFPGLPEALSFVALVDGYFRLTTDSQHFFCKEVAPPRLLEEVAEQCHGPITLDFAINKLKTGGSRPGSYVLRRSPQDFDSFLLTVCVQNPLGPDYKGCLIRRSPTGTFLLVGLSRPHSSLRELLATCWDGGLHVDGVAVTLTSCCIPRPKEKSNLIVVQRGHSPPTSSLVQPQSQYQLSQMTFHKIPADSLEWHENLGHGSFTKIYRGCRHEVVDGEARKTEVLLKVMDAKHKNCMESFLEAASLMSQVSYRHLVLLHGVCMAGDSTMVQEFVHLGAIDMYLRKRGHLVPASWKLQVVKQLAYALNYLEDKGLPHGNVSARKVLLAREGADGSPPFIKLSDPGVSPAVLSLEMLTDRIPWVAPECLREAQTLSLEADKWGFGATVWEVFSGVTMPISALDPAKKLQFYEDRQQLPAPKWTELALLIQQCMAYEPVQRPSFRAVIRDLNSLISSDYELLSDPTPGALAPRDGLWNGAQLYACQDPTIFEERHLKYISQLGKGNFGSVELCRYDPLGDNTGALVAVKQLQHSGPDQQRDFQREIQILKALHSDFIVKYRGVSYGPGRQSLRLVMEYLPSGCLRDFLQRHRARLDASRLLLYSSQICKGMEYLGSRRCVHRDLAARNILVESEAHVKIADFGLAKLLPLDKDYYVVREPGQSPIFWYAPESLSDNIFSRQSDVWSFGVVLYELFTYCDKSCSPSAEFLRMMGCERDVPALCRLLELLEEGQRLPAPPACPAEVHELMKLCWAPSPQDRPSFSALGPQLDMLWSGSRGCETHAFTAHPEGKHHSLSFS
# Casein kinase 2 = Casein kinase 2 (Homo sapiens, UniProt P67870+P68400+P19784+Q8NEV1); assay: Inhibition of recombinant CK2 (unknown origin); assay type: protein assay
# NCI-H1975 = assay: Antiproliferative activity against human NCI-H1975 cells assessed as inhibition of cell growth incubated for 72 hrs by celltiter-glo assay; assay type: functional, cell-based; conditions: NCI-H1975, 72 h
# T47D = assay: Antiproliferative activity against human T47D cells assessed as inhibition of cell growth incubated for 72 hrs by celltiter-glo assay; assay type: functional, cell-based
# SNB-19 = assay: Antiproliferative activity against human SNB-19 cells assessed as inhibition of cell growth incubated for 72 hrs by celltiter-glo assay; assay type: functional, cell-based; conditions: SNB-19, 72 h
# SW948 = assay: Antiproliferative activity against human SW948 cells assessed as inhibition of cell growth incubated for 72 hrs by celltiter-glo assay; assay type: functional, cell-based; conditions: SW948, 72 h
# [4] = target: Serine/threonine-protein kinase PLK2 (Homo sapiens, UniProt Q9NYY3); assay: Inhibition of recombinant PLK2 (unknown origin)
# U2OS [5] = assay: Cytotoxicity against human U2OS cells expressing YFP-alpha tubulin assessed as cell death incubated for 86 hrs; assay type: functional, cell-based
# [6] = target: Glycogen synthase kinase-3 beta (Homo sapiens, UniProt P49841); assay: Inhibition of recombinant GSK3beta (unknown origin)
# Glycogen synthase kinase-3 beta, sequence (P49841 whole entry): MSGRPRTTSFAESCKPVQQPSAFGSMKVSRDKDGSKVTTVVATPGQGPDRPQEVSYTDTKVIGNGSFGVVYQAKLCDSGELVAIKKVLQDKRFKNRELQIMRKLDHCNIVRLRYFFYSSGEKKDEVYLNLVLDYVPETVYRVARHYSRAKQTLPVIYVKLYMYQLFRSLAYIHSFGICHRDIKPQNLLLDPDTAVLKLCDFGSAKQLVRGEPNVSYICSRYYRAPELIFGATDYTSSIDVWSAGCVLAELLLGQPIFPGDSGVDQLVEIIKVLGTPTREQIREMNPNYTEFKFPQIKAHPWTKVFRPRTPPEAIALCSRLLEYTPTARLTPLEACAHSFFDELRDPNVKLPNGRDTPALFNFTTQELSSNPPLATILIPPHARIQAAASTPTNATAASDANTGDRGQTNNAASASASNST
# [7] = target: Eukaryotic elongation factor 2 kinase (Homo sapiens, UniProt O00418); assay: Inhibition of recombinant EEF2K (unknown origin)
# Eukaryotic elongation factor 2 kinase, sequence (O00418 whole entry): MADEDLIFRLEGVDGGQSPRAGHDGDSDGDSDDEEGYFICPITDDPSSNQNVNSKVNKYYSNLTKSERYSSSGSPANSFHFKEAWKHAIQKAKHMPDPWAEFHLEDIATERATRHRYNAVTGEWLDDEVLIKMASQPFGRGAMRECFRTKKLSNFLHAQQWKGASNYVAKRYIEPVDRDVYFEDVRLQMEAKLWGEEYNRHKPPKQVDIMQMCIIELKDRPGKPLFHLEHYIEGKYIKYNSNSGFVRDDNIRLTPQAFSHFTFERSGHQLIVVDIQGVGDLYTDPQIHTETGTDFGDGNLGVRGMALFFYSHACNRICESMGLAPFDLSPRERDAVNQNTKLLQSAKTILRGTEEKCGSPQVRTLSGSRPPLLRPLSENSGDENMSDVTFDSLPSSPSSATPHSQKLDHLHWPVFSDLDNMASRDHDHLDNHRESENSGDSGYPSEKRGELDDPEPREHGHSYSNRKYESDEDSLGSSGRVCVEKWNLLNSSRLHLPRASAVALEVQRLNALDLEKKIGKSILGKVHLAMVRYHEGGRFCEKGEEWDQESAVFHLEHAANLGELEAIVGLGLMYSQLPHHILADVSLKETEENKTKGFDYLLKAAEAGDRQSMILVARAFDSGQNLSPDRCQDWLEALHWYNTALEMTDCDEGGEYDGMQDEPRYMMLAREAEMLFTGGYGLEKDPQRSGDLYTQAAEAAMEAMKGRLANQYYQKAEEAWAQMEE
# SET-2 = assay: Antiproliferative activity against human SET2 cells assessed as inhibition of cell growth incubated for 72 hrs by celltiter-glo assay; assay type: functional, cell-based; conditions: SET-2, 72 h
# [8] = Cmax in Athymic nu-nu mouse at 10 mg/kg, po measured upto 24 hrs by LC-MS/MS analysis; assay type: ADME, organism-based; conditions: in vivo
# [9] = target: Serine/threonine-protein kinase Nek6 (Homo sapiens, UniProt Q9HC98); assay: Inhibition of recombinant NEK6 (unknown origin) preincubated for 60 mins
# Serine/threonine-protein kinase Nek6, sequence (Q9HC98 whole entry): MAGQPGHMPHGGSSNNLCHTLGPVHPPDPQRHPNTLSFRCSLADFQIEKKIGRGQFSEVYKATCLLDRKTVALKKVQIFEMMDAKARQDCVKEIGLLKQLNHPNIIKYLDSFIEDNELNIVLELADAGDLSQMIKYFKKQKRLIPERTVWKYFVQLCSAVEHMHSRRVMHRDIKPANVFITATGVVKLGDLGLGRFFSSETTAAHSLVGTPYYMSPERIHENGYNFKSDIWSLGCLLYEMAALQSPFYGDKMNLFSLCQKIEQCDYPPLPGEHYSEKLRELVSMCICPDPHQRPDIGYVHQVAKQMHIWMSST
# [10] = Half life in Athymic nu-nu mouse at 10 mg/kg, po measured upto 24 hrs by LC-MS/MS analysis; assay type: ADME, organism-based; conditions: in vivo
# SW1417 = assay: Antiproliferative activity against human SW1417 cells assessed as inhibition of cell growth incubated for 72 hrs by celltiter-glo assay; assay type: functional, cell-based; conditions: SW1417, 72 h
# NCI-H526 = assay: Antiproliferative activity against human NCI-H526 cells assessed as inhibition of cell growth incubated for 72 hrs by celltiter-glo assay; assay type: functional, cell-based; conditions: NCI-H526, 72 h
# [11] = Inhibition of recombinant ABL (unknown origin); set-up: species or system Homo sapiens
# Hs-578T = assay: Antiproliferative activity against human Hs-578T cells assessed as inhibition of cell growth incubated for 72 hrs by celltiter-glo assay; assay type: functional, cell-based
# U2OS [12] = assay: Induction of mitotic arrest in human U2OS cells expressing YFP-alpha-tubulin assessed as reduction in mitotic-phase length at 1 micromol/L by time-lapse microscopic analysis; assay type: functional, cell-based; conditions: dose 1.0 µmol/L
# SKM-1 = assay: Antiproliferative activity against human SKM-1 cells assessed as inhibition of cell growth incubated for 72 hrs by celltiter-glo assay; assay type: functional, cell-based; conditions: SKM-1, 72 h
# CCRF-CEM = assay: Antiproliferative activity against human CCRF-CEM cells assessed as inhibition of cell growth incubated for 72 hrs by celltiter-glo assay; assay type: functional, cell-based
# SW480 = assay: Antiproliferative activity against human SW480 cells assessed as inhibition of cell growth incubated for 72 hrs by celltiter-glo assay; assay type: functional, cell-based; conditions: SW480, 72 h
# NCI-H146 = assay: Antiproliferative activity against human NCI-H146 cells assessed as inhibition of cell growth incubated for 72 hrs by celltiter-glo assay; assay type: functional, cell-based; conditions: NCI-H146, 72 h
# [13] = Half life in Athymic nu-nu mouse at 10 mg/kg, iv measured upto 24 hrs by LC-MS/MS analysis; assay type: ADME, organism-based; conditions: in vivo
# [14] = Inhibition of recombinant AUR2 (unknown origin); set-up: species or system Homo sapiens
# MeWo = assay: Antiproliferative activity against human MeWo cells assessed as inhibition of cell growth incubated for 72 hrs by celltiter-glo assay; assay type: functional, cell-based
# A-375 = assay: Antiproliferative activity against human A-375 cells assessed as inhibition of cell growth incubated for 72 hrs by celltiter-glo assay; assay type: functional, cell-based; conditions: A-375, 72 h
# HeLa = assay: Induction of mitotic arrest in human nocodazole-arrested HeLa cells assessed as delocalization of MAD2 at 1 micromol/L in presence of MG132; assay type: functional, cell-based; conditions: dose 1.0 µmol/L
# MCF7 = assay: Antiproliferative activity against human MCF7 cells assessed as inhibition of cell growth incubated for 72 hrs by celltiter-glo assay; assay type: functional, cell-based; conditions: MCF7, 72 h
# A2780 = assay: Induction of apoptosis in human A2780 cells assessed as upregulation of histone H3 dephosphorylation at 0.2 to 1 micromol/L incubated for 2 to 72 hrs by Western blot analysis; assay type: functional, cell-based; conditions: dose 0.2-1 µmol/L, time 2-72 hrs
# [15] = target: Mitogen-activated protein kinase 14 (Homo sapiens, UniProt Q16539); assay: Inhibition of recombinant P38alpha (unknown origin)
# Mitogen-activated protein kinase 14, sequence (Q16539 whole entry): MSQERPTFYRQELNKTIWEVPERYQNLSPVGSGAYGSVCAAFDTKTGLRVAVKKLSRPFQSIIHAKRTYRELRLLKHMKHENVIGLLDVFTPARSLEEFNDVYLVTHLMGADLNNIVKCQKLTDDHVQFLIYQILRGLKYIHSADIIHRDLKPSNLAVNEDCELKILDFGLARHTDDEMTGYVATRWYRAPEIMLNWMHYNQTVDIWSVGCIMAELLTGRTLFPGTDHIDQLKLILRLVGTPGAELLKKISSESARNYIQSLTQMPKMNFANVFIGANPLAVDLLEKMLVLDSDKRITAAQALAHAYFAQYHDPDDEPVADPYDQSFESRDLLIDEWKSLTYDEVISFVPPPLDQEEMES
# MDA-MB-231 = assay: Antiproliferative activity against human MDA-MB-231 cells assessed as inhibition of cell growth incubated for 72 hrs by celltiter-glo assay; assay type: functional, cell-based; conditions: MDA-MB-231, 72 h
# [16] = target: Tyrosine-protein kinase ZAP-70 (Homo sapiens, UniProt P43403); assay: Inhibition of recombinant ZAP70 (unknown origin)
# Tyrosine-protein kinase ZAP-70, sequence (P43403 whole entry): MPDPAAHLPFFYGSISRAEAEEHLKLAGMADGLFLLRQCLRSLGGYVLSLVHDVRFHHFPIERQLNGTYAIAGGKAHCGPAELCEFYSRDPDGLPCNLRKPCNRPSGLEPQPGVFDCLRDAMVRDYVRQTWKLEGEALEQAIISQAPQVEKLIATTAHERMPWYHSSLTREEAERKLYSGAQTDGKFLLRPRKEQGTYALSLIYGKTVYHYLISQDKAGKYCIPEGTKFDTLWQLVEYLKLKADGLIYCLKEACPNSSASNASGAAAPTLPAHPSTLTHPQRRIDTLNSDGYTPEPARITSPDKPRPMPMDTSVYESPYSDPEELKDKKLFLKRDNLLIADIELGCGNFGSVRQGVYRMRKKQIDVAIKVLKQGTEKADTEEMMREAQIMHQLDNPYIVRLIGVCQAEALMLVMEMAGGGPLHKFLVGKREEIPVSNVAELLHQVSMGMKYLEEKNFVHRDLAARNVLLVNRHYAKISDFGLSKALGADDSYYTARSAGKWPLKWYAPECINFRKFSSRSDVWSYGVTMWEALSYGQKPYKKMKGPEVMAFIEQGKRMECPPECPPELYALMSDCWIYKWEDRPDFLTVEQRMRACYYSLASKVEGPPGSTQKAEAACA
# [17] = target: Serine/threonine-protein kinase pim-2 (Homo sapiens, UniProt Q9P1W9); assay: Inhibition of recombinant PIM2 (unknown origin)
# Serine/threonine-protein kinase pim-2, sequence (Q9P1W9 whole entry): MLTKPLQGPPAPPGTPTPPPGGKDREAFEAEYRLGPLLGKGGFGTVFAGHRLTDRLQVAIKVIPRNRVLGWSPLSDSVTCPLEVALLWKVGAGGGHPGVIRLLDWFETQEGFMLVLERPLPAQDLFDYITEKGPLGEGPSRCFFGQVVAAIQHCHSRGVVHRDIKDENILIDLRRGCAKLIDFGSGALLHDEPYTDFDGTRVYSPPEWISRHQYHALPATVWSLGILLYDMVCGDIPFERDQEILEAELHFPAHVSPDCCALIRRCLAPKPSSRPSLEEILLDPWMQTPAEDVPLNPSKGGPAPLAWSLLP
# SK-LU-1 = assay: Antiproliferative activity against human SK-LU-1 cells assessed as inhibition of cell growth incubated for 72 hrs by celltiter-glo assay; assay type: functional, cell-based; conditions: SK-LU-1, 72 h
# SU-DHL-1 = assay: Antiproliferative activity against human SU-DHL-1 cells assessed as inhibition of cell growth incubated for 72 hrs by celltiter-glo assay; assay type: functional, cell-based; conditions: SU-DHL-1, 72 h
# Maternal embryonic leucine zipper kinase, sequence (Q14680 whole entry): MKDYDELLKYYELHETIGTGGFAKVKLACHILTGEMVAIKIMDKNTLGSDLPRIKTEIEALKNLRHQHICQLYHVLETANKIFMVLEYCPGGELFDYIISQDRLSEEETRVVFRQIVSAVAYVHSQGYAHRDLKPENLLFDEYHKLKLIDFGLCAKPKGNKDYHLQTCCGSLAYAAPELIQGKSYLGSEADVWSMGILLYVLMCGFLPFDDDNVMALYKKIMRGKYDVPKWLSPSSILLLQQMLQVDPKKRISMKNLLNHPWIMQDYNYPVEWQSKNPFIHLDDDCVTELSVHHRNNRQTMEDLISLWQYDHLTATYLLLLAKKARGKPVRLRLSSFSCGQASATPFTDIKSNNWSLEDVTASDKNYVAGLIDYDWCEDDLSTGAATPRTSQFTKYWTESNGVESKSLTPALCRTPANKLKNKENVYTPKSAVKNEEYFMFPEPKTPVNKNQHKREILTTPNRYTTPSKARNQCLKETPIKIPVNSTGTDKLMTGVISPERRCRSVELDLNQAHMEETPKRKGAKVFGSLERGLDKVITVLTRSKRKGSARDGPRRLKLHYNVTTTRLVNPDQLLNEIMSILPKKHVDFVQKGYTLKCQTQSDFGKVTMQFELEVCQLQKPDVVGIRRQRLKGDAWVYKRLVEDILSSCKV
smiles,measurement,setting,value
CCc1cccc(CC)c1NC(=O)c1nn(C)c2c1CCc1cnc(Nc3ccc(C(=O)NC4CCN(C)CC4)cc3OC(F)(F)F)nc1-2,IC50,NHDF,10 µM
same,IC50,[1],6.01 µM
same,IC50,MV4-11,1.14 µM
same,Activity,HCT-116,Active
same,IC50,IGROV-1,1.15 µM
same,IC50,[2],> 10 µM
same,IC50,Activated CDC42 kinase 1,> 10 µM
same,IC50,[3],> 10 µM
same,IC50,Casein kinase 2,5.7 µM
same,IC50,NCI-H1975,10 µM
same,IC50,T47D,2.86 µM
same,IC50,SNB-19,6.93 µM
same,IC50,SW948,1.96 µM
same,IC50,[4],> 10 µM
same,Activity,U2OS [5],Active
same,IC50,[6],> 10 µM
same,IC50,[7],> 10 µM
same,IC50,SET-2,10 µM
same,Cmax,[8],600 nM
same,IC50,[9],< 10 µM
same,half-life,[10],8.01 h
same,IC50,SW1417,8.84 µM
same,IC50,NCI-H526,2.2 µM
same,IC50,[11],> 10 µM
same,IC50,Hs-578T,6.64 µM
same,Activity,U2OS [12],Active
same,IC50,SKM-1,10 µM
same,IC50,CCRF-CEM,1.43 µM
same,IC50,SW480,1.3 µM
same,IC50,NCI-H146,4.28 µM
same,half-life,[13],7.65 h
same,IC50,[14],> 10 µM
same,IC50,MeWo,3.26 µM
same,IC50,A-375,0.796 µM
same,Activity,HeLa,Active
same,IC50,MCF7,1.86 µM
same,Activity,A2780,Active
same,IC50,[15],> 10 µM
same,IC50,MDA-MB-231,0.899 µM
same,IC50,[16],> 10 µM
same,IC50,[17],> 10 µM
same,IC50,SK-LU-1,5 µM
same,IC50,SU-DHL-1,3.31 µM
